Results taken from PubChem BioAssay (NCI).
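A five-concentration, 48-hour dose response in 96-well plates underlies each endpoint, interpolated linearly between surrounding concentrations. TGI is the concentration that stops growth completely.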

What was measured:
Experiment in all cases: inhibition of tumour cell growth, NCI panel, 48 h
OVCAR-8 ovarian = system: OVCAR-8 ovarian
SK-OV-3 ovarian = system: SK-OV-3 ovarian
A549 NSCLC = system: A549 NSCLC
RPMI-8226 leukemia = system: RPMI-8226 leukemia
M14 melanoma = system: M14 melanoma
A498 renal = system: A498 renal
SK-MEL-2 melanoma = system: SK-MEL-2 melanoma
SF-539 CNS = system: SF-539 CNS
MDA-MB-435 = system: MDA-MB-435
SW-620 colon = system: SW-620 colon
UACC-257 melanoma = system: UACC-257 melanoma
OVCAR-4 ovarian = system: OVCAR-4 ovarian
CCRF-CEM leukemia = system: CCRF-CEM leukemia
SR leukemia = system: SR leukemia
TK-10 renal = system: TK-10 renal
LOX IMVI melanoma = system: LOX IMVI melanoma
SF-268 CNS = system: SF-268 CNS
MDA-N = system: MDA-N
HS 578T breast = system: HS 578T breast
SK-MEL-28 melanoma = system: SK-MEL-28 melanoma
MDA-MB-231 breast = system: MDA-MB-231 breast
SN12C renal = system: SN12C renal
K-562 leukemia = system: K-562 leukemia
HT29 colon = system: HT29 colon
HCT-116 colon = system: HCT-116 colon
EKVX NSCLC = system: EKVX NSCLC
RXF 393 renal = system: RXF 393 renal
UACC-62 melanoma = system: UACC-62 melanoma
CAKI-1 renal = system: CAKI-1 renal
PC-3 prostate = system: PC-3 prostate
MOLT-4 leukemia = system: MOLT-4 leukemia
HOP-92 NSCLC = system: HOP-92 NSCLC
NCI-H460 lung = system: NCI-H460 lung
COLO 205 colon = system: COLO 205 colon
SNB-75 CNS = system: SNB-75 CNS
UO-31 renal = system: UO-31 renal
SNB-19 CNS = system: SNB-19 CNS
MCF7 breast = system: MCF7 breast
U251 CNS = system: U251 CNS
ACHN renal = system: ACHN renal
IGROV1 ovarian = system: IGROV1 ovarian
HCC-2998 colon = system: HCC-2998 colon
HL-60(TB) leukemia = system: HL-60(TB) leukemia
OVCAR-5 ovarian = system: OVCAR-5 ovarian
SK-MEL-5 melanoma = system: SK-MEL-5 melanoma
MALME-3M melanoma = system: MALME-3M melanoma
NCI-H23 lung = system: NCI-H23 lung
HCT-15 colon = system: HCT-15 colon
HOP-62 NSCLC = system: HOP-62 NSCLC
786-0 renal = system: 786-0 renal
T-47D breast = system: T-47D breast
NCI/ADR-RES ovarian = system: NCI/ADR-RES ovarian
SF-295 CNS = system: SF-295 CNS
KM12 colon = system: KM12 colon
DU-145 prostate = system: DU-145 prostate
NCI-H226 lung = system: NCI-H226 lung
NCI-H522 lung = system: NCI-H522 lung
OVCAR-3 ovarian = system: OVCAR-3 ovarian

`CC(=O)O[C@H]1C(=O)[C@@]2(C)[C@H]([C@H](OC(=O)c3ccccc3)[C@]3(O)C[C@H](OC(=O)[C@H](O)[C@@H](NC(=O)c4ccccc4)c4ccc5ccccc5c4)C(C)=C1C3(C)C)[C@]1(OC(C)=O)CO[C@@H]1C[C@@H]2O` showed a TGI (OVCAR-8 ovarian) of 25.8 µM, a TGI (SK-OV-3 ovarian) of 0.836 µM and a TGI (A549 NSCLC) greater than 42.1 µM. The TGI (RPMI-8226 leukemia) was 1.87 µM, the TGI (M14 melanoma) was 1.85 µM and the TGI (A498 renal) was 6.96 µM. For the same compound, the TGI (SK-MEL-2 melanoma) was 0.173 µM, the TGI (SF-539 CNS) was 0.152 µM and the TGI (MDA-MB-435) was 0.0238 µM. It also gave a TGI (SW-620 colon) greater than 50 µM, a TGI (UACC-257 melanoma) of 8.22 µM and a TGI (OVCAR-4 ovarian) greater than 41 µM. It also gave a TGI (CCRF-CEM leukemia) greater than 11.2 µM, a TGI (SR leukemia) of 1.85 µM and a TGI (TK-10 renal) of 18.6 µM. For the same compound, the TGI (LOX IMVI melanoma) was 6.59 µM, the TGI (SF-268 CNS) was greater than 50 µM and the TGI (MDA-N) was 0.0202 µM. It also gave a TGI (HS 578T breast) of 0.148 µM, a TGI (SK-MEL-28 melanoma) greater than 23.1 µM and a TGI (MDA-MB-231 breast) of 1.8 µM. For the same compound, the TGI (SN12C renal) was 17.2 µM, the TGI (K-562 leukemia) was 2.05 µM and the TGI (HT29 colon) was 1.96 µM. The TGI (HCT-116 colon) was 0.237 µM, the TGI (EKVX NSCLC) was greater than 50 µM and the TGI (RXF 393 renal) was 1.77 µM. The TGI (UACC-62 melanoma) was 12.7 µM, the TGI (CAKI-1 renal) was greater than 41 µM and the TGI (PC-3 prostate) was greater than 50 µM. For the same compound, the TGI (MOLT-4 leukemia) was 1.09 µM, the TGI (HOP-92 NSCLC) was greater than 14 µM and the TGI (NCI-H460 lung) was 5.19 µM. For the same compound, the TGI (COLO 205 colon) was 0.319 µM, the TGI (SNB-75 CNS) was 2.15 µM and the TGI (UO-31 renal) was greater than 50 µM. For the same compound, the TGI (SNB-19 CNS) was greater than 31.8 µM, the TGI (MCF7 breast) was 0.879 µM and the TGI (U251 CNS) was 1.46 µM. For the same compound, the TGI (ACHN renal) was greater than 50 µM, the TGI (IGROV1 ovarian) was greater than 42.3 µM and the TGI (HCC-2998 colon) was 0.228 µM. It also gave a TGI (HL-60(TB) leukemia) of 0.0327 µM, a TGI (OVCAR-5 ovarian) of 2 µM and a TGI (SK-MEL-5 melanoma) of 12.9 µM. The TGI (MALME-3M melanoma) was 14.7 µM, the TGI (NCI-H23 lung) was greater than 45.4 µM and the TGI (HCT-15 colon) was 8.4 µM. It also gave a TGI (HOP-62 NSCLC) of 0.362 µM, a TGI (786-0 renal) of 8.59 µM and a TGI (T-47D breast) greater than 50 µM. For the same compound, the TGI (NCI/ADR-RES ovarian) was greater than 50 µM and the TGI (SF-295 CNS) was 1.89 µM.

Work on `CSc1cc(Cl)c(C)cc1S(=O)(=O)NC(=O)NNc1ccc(F)cc1` yielded a TGI (OVCAR-8 ovarian) greater than 100 µM, a TGI (SK-OV-3 ovarian) greater than 100 µM and a TGI (A549 NSCLC) greater than 100 µM. The TGI (M14 melanoma) was greater than 100 µM, the TGI (A498 renal) was greater than 100 µM and the TGI (SK-MEL-2 melanoma) was greater than 100 µM. It also gave a TGI (SF-539 CNS) greater than 100 µM, a TGI (KM12 colon) greater than 100 µM and a TGI (MDA-MB-435) greater than 100 µM. It also gave a TGI (SW-620 colon) greater than 100 µM, a TGI (OVCAR-4 ovarian) greater than 100 µM and a TGI (SR leukemia) greater than 100 µM. The TGI (DU-145 prostate) was greater than 100 µM, the TGI (LOX IMVI melanoma) was greater than 100 µM and the TGI (SF-268 CNS) was greater than 100 µM. The TGI (MDA-N) was greater than 100 µM, the TGI (HS 578T breast) was greater than 100 µM and the TGI (SK-MEL-28 melanoma) was greater than 100 µM. The TGI (MDA-MB-231 breast) was greater than 100 µM, the TGI (SN12C renal) was greater than 100 µM and the TGI (K-562 leukemia) was greater than 100 µM. The TGI (HT29 colon) was greater than 100 µM, the TGI (HCT-116 colon) was greater than 100 µM and the TGI (EKVX NSCLC) was greater than 100 µM. The TGI (RXF 393 renal) was greater than 100 µM, the TGI (CAKI-1 renal) was greater than 100 µM and the TGI (PC-3 prostate) was greater than 100 µM. The TGI (MOLT-4 leukemia) was greater than 100 µM, the TGI (NCI-H460 lung) was greater than 100 µM and the TGI (COLO 205 colon) was greater than 100 µM. The TGI (SNB-75 CNS) was greater than 100 µM, the TGI (SNB-19 CNS) was greater than 100 µM and the TGI (MCF7 breast) was greater than 100 µM. It also gave a TGI (NCI-H226 lung) greater than 100 µM, a TGI (U251 CNS) greater than 100 µM and a TGI (ACHN renal) greater than 100 µM. It also gave a TGI (IGROV1 ovarian) greater than 100 µM, a TGI (HCC-2998 colon) greater than 100 µM and a TGI (OVCAR-5 ovarian) greater than 100 µM. The TGI (SK-MEL-5 melanoma) was greater than 100 µM, the TGI (NCI-H522 lung) was greater than 100 µM and the TGI (MALME-3M melanoma) was greater than 100 µM. For the same compound, the TGI (HCT-15 colon) was greater than 100 µM, the TGI (HOP-62 NSCLC) was greater than 100 µM and the TGI (786-0 renal) was greater than 100 µM. It also gave a TGI (T-47D breast) greater than 100 µM, a TGI (NCI/ADR-RES ovarian) greater than 100 µM and a TGI (OVCAR-3 ovarian) greater than 100 µM. It also gave a TGI (SF-295 CNS) greater than 100 µM.
